{
  "source": "paper PMC2408655",
  "about": "(Journal of Neurochemistry, 2008)",
  "key": {"[1]": {"biological_target": "Aβ fibrils", "conditions": "read-out: Kd and Ki values, Aβ, in vitro generated Aβ fibrils, cited from earlier work"}, "[2]": {"biological_target": "T1, α-synuclein (AS) filaments (Homo sapiens, UniProt P37840)", "experiment": "Radioligand binding assay of α-synuclein"}, "[3]": {"biological_target": "T1, α-synuclein (AS) filaments", "experiment": "Radioligand competition assay of α-synuclein", "assay_type": "binding", "conditions": "for displacement of the radioligand from the AS filaments: [3H]-Me-BTA1 radioligand, Fig. 3b"}},
  "note": "Read-outs that look alike come from different tables or passages of the source.",
  "data": [
    {"smiles": "CNc1ccc(-c2nc3ccc(C)cc3s2)cc1", "note": "[Me-BTA1, 2-[4′-(methylamino)phenyl]-6-methylbenzothiazole]", "values": [
      {"measurement": "Kd", "setting": "[1]; ref Lockhart et al. 2005", "result": 4.2, "unit": "nM"}
    ]},
    {"smiles": "CNc1ccc(-c2nc3ccc(O)cc3s2)cc1", "note": "[PIB, 2-[4′-(methylamino)phenyl]-6-hydroxybenzothiazole]", "values": [
      {"measurement": "Ki", "setting": "[1]; ref Ye et al. 2005", "result": 25, "unit": "nM"},
      {"measurement": "Kd", "setting": "[2]", "result": 4.16, "unit": "nM"},
      {"measurement": "fold weaker binding than BF1", "setting": "[3]; Ki relative to BF1", "result": "around fourfold weaker"},
      {"measurement": "displacement of the radioligand from the AS filaments", "setting": "[3]", "result": "dose-dependent displacement"}
    ]},
    {"smiles": "CN(C)c1ccc(-c2cc3cc(Br)ccc3o2)cc1", "note": "[BF1, 5-bromo-2-(4-dimethylaminophenyl)benzofuran]", "values": [
      {"measurement": "Ki", "setting": "[1]; ref Lockhart et al. 2005", "result": 3, "unit": "nM"},
      {"measurement": "displacement of the radioligand from the AS filaments", "setting": "[3]", "result": "dose-dependent displacement"}
    ]}
  ]
}
